Earlier results in article PMC3187562 (ACS medicinal chemistry letters, 2011).

What was measured:
ΔF508-CFTR [1] = settings: CF lung cell line expressing ΔF508-CFTR from a viral promoter
ΔF508-CFTR [2] = settings: Phase 2a clinical study, CF patients

CC(/C=C/C(=O)NO)=C\[C@@H](C)C(=O)c1ccc(N(C)C)cc1 [compound 1, trichostatin A]
increase of ΔF508-CFTR mRNA levels (ΔF508-CFTR [1]): > 15 fold

Cc1ccc(NC(=O)C2(c3ccc4c(c3)OC(F)(F)O4)CC2)nc1-c1cccc(C(=O)O)c1 [VX-809]
sweat chloride levels (key biomarker) (ΔF508-CFTR [2]): reduced sweat chloride levels

C/C=C1\NC(=O)[C@H]2CSSCC/C=C/[C@H](CC(=O)N[C@H](C(C)C)C(=O)N2)OC(=O)[C@H](C(C)C)NC1=O [romidepsin]
expression of HDAC7 in treated cells (HDAC7): selectively down-regulated

O=C(CCCCCCC(=O)Nc1ccccc1)NO [compound 2, vorinostat]
increase of ΔF508-CFTR mRNA levels (ΔF508-CFTR [1]): > 15 fold | increase of ΔF508-CFTR protein levels (ΔF508-CFTR [1]): 25 fold
